From patent US20080025940A1, “Administration of 3-sulfanylpropanamide compounds for stimulating hair and eyelash growth and/or for stopping the loss and/or limiting the depigmentation thereof” (L'OREAL, priority 2005, published 2008)

Biological target: T1, 15-PGDH (Homo sapiens, UniProt P15428)
T1 construct: made in house
T1 sequence (P15428 1-266): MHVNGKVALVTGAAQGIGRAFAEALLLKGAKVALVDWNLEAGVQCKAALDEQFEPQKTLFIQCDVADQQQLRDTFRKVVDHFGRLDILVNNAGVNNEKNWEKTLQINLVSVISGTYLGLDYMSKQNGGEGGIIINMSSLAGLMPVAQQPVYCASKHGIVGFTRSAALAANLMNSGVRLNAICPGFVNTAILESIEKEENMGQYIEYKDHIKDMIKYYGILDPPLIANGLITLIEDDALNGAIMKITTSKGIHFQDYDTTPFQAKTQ
Test: Test on 15-PGDH (spectrophotometric, NAD/PGE2, 340 nm)
Type: biochemical
Conditions: for IC50: pH 7.4 Tris buffer, 37° C., 50 μM prostaglandin E2, 1.5 mM β-NAD, read-out: IC50 (concentration reducing the enzymatic activity of 15-PGDH by 50%, IC50dh)
Experimental: The enzyme 15-PGDH is obtained as described in FR 02/05067 filed in the name of L'Oreal, as a suspension in a medium adjusted to a concentration of 0.3 mg/mL and then blocked at −80° C. For the purposes of the test, this suspension is thawed and stored in ice.
In parallel, a 100 mM, pH 7.4 Tris buffer containing 0.1 mM of dithiothreitol (D5545, Sigma-Aldrich, L'isle D'Abeau Chesne, BP 701, 38297, Saint Quentin Fallavier), 1.5 mM of β-NAD (N6522, Sigma-Aldrich, L'isle D'Abeau Chesne, BP 701, 38297, Saint Quentin Fallavier), and 50 μM of prostaglandin E2 (P4172, Sigma-Aldrich, L'isle D'Abeau Chesne, BP 701, 38297, Saint Quentin Fallavier) is prepared.
0.965 ml of this buffer (brought to 37° C. beforehand) is introduced into the cuvette of a spectrophotometer (Perkin-Elmer, Lambda 2) thermostatically maintained at 37° C., the measuring wavelength of which is set at 340 nm. 0.035 mL of enzymatic suspension at 37° C. is introduced into the cuvette concomitantly with the recording (corresponding to an increase in the optical density at 340 nm). The maximum reaction rate is recorded.

Compound	IC50	inhibition at 100 µM (at 100 μM)
CSCCC(=O)NCc1ccc(C)o1 [Example 1, N-[(5-methyl-2-furyl)methyl]-3-(methylsulfanyl)propanamide]	0.8 µM	–
CSCCC(=O)NCc1ccco1 [Example 2, N-(2-furylmethyl)-3-(methylsulfanyl)propanamide]	9.8 µM	–
COc1ccc(CNC(=O)CCSC)cc1 [Example 3, N-(4-methoxybenzyl)-3-(methylsulfanyl)propanamide]	6 µM	–
CCCCCCNC(=O)CCSC [Example 4, N-hexyl-3-(methylsulfanyl)propanamide]	12 µM	–
CSCCC(=O)Nc1ccccc1C(F)(F)F [Example 5, 3-(methylsulfanyl)-N-[2-(trifluoromethyl)phenyl]propanamide]	–	21%
CSCCC(=O)NC(C)c1ccccc1 (centres unmarked) [Example 7, 3-(methylsulfanyl)-N-(1-phenylethyl)propanamide]	14.7 µM	–
CSCCC(=O)NC1CCC1 [Example 8, N-cyclobutyl-3-(methylsulfanyl)propanamide]	47 µM	–
N-benzyl-3-(methylsulfanyl)propanamide [Example 6]	1.6 µM	–
